Results on 28 molecules are retold here after US5281616A, “Porphyrin and phthalocyanine antiviral compositions” (priority 1992, dated 1994).

In one test the test system is HIV-1 (strain LAV-1). The experiment in a line: Inhibition of HIV replication in PBM cells (supernatant RT activity). The format is cell-based.
Test [1] has as its target HIV-1 reverse transcriptase (Human immunodeficiency virus type 1 group M subtype B, UniProt P04585). The test is described as follows: Inhibition of purified HIV-1 reverse transcriptase (cell free). Format: biochemical. As for the experimental part:
Methodology for Testing Antiviral Drugs for Inhibition of HIV-1 Reverse Transcriptase
Cells and viruses are cultured as described above. […] 12,431-439 (1973). Cocktail, template, compound to be tested and reverse transcriptase are mixed together on ice, then incubated for one hour at 37° C.. The DNA synthesized is acid precipitated and the radioactivity measured, as described by Eriksson, B., et al., Antimicrobial Agents and Chemotherapy 31, 600-604 ([…]).

In test [2] the test system is herpes simplex virus type 2. The experiment in a line: Plaque assay in Vero cells, HSV type 2. The format is cell-based, HSV-2. On the procedure: (§1) Methodology for Testing Antiviral Drugs for Inhibition of Replication of HSV-1 and HSV-2
(§2) Compounds are tested for inhibition of herpes simplex virus type 1 and herpes simplex virus type 2 using the method of Schinazi, et al., Antimicrobial Agents and Chemotherapy 22, 499-507 (1982). This is a plaque assay using Vero cells (African green monkey cells) infected with HSV.

The test system of test [3] is herpes simplex virus type 1. The test is described as follows: Plaque assay in Vero cells, HSV type 1. The format is cell-based, HSV-1. On the procedure: as §1, §2
The test system of another test is influenza A. The following applies: upon exposure to light; concentrations as low as; cited from earlier work.
For the next test, the system named is herpes simplex viruses. The following applies: upon exposure to light; concentrations as low as; cited from earlier work.
Setting [4] is: human PBM cells, RT activity in supernatant five days after infection, read-out: EC50, inhibition of HIV replication in PBM cells.
Where [5] appears, read: Human immunodeficiency virus 1, PBMC, 120 h, human PBM cells, RT activity in supernatant five days after infection, read-out: EC50, inhibition of HIV replication in PBM cells.
Setting [6] is: purified enzyme, one hour at 37° C., read-out: EC50, inhibition of HIV reverse transcriptase.
Setting [7] is: Human immunodeficiency virus 1, PBMC, 120 h, read-out: EC50, inhibition of HIV replication in PBM cells, human PBM cells, RT activity in supernatant five days after infection.
Where [8] appears, read: read-out: EC50, inhibition of HIV reverse transcriptase, purified enzyme, one hour at 37° C.
Setting [9] is: Human alphaherpesvirus 2, Light, Vero cells plaque assay, read-out: EC50 HSV type 2 Light.
The mark [10] stands for this setting: Human alphaherpesvirus 1, Dark, Vero cells plaque assay, read-out: EC50 HSV type 1 Dark.
[11] abbreviates: Human alphaherpesvirus 1, Light, Vero cells plaque assay, read-out: EC50 HSV type 1 Light.
The mark [12] stands for this setting: Human alphaherpesvirus 2, Dark, Vero cells plaque assay, read-out: EC50 HSV type 2 Dark.

As usually defined, the EC50 is the concentration that produces a half-maximal response.

Several values for one entry are separate records, joined by “and”; a condition that tells them apart may be missing. Equal values may be shown once. Where a name gives a salt, the structure may show the parent alone. Read-outs that look alike come from different tables or passages of the source. Some results are limits rather than exact numbers.

As for Reactive Blue 15, in the test on HIV-1 (strain LAV-1) (setting [4]), the EC50 is ≤ 1 µM.

Turning to “Fe(III)-mu-oxo-dimer of tetraphenyl-porphyrin [μ-oxo-TPP]”, in the test with HIV-1 (strain LAV-1) (setting [4]), the EC50 was > 100 µM.

For the molecule `C[n+]1cccc(-c2c3nc(c(-c4ccccc4)c4ccc([nH]4)c(-c4ccccc4)c4nc(c(-c5ccc[n+](C)c5)c5ccc2[nH]5)C=C4)C=C3)c1` [CP-3, 5,10-Diphenyl-15,20-di(N-methyl-3-pyridyl)-porphyrin Cl-], the EC50 with HIV-1 (strain LAV-1) (setting [5]) is 2.28 µM; in test [1] it was 41.6 µM.

Take `C[n+]1ccc(-c2c3nc(c(-c4ccccc4)c4ccc([nH]4)c(-c4ccccc4)c4nc(c(-c5cc[n+](C)cc5)c5ccc2[nH]5)C=C4)C=C3)cc1` [CP-4, 5,10-Diphenyl-15,20-di(N-methyl-4-pyridyl)-porphyrin Cl-]: in the test with HIV-1 (strain LAV-1), the “Difference in inhibition of HIV, dark versus light” value is reported as “No significant differences in activity”. In addition, the EC50 was 0.38 µM in the test on HIV-1 (strain LAV-1) (Human immunodeficiency virus 1, PBMC, 120 h, read-out: EC50, inhibition of HIV replication in PBM cells); 0.43 µM in the test on HIV-1 (strain LAV-1) (Human immunodeficiency virus 1, PBMC, read-out: EC50, inhibition of HIV replication in PBM cells); 26.9 µM in test [1].

With `[Cu+2].c1ccc2c(c1)-c1nc-2nc2[n-]c(nc3nc(nc4[n-]c(n1)c1ccccc41)-c1ccccc1-3)c1ccccc21` [CuPHTH, Copper phthalocyanine], the EC50 with HIV-1 (strain LAV-1) (setting [4]) is 46.9 µM.

For “Fe(III)-tetra-(4-methylphenyl)-porphyrin chloride [(FeTPP)(4-Cl)4]”, the EC50 in the test on HIV-1 (strain LAV-1) (setting [4]) was > 100 µM.

As for `C[n+]1ccc(-c2c3nc(c(-c4cc[n+](C)cc4)c4ccc([nH]4)c(-c4ccccc4)c4nc(c(-c5ccccc5)c5ccc2[nH]5)C=C4)C=C3)cc1.[Cu+2]` [Cu-CP4, Cu(II)-5,10-diphenyl-15,20-di(N-methyl-4-pyridyl)-porphyrin], the EC50 was 4.76 µM and 5.78 µM in the test with HIV-1 (strain LAV-1) (setting [4]); 57.4 µM in test [1] (setting [6]).

Turning to `Cl[Si]1(Cl)n2c3c4ccccc4c2N=C2N=C(N=c4c5ccccc5c(n41)=NC1=NC(=N3)c3ccccc31)c1ccccc12` [SiPHTHCl2, Silicon phthalocyanine dichloride], the concentration giving a half-maximal response (EC50) in the test on HIV-1 (strain LAV-1) (setting [7]) is ≤ 1 µM.

With `[Co+2].c1ccc2c(c1)-c1nc-2nc2[n-]c(nc3nc(nc4[n-]c(n1)c1ccccc41)-c1ccccc1-3)c1ccccc21` [CoPHTH, Cobalt phthalocyanine], in the test with HIV-1 (strain LAV-1) (setting [4]), the EC50 is 100 µM.

Turning to `C[n+]1cccc(-c2c3nc(c(-c4ccccc4)c4ccc([nH]4)c(-c4ccc[n+](C)c4)c4nc(c(-c5ccccc5)c5ccc2[nH]5)C=C4)C=C3)c1` [TP-4, 5,15-Diphenyl-10,20-di(N-methyl-3-pyridyl)-porphyrin Cl-], the EC50 is < 1 µM in the test on HIV-1 (strain LAV-1) (setting [5]), 0.76 µM with HIV-1 (strain LAV-1) (setting [4]) and 6.9 µM in test [1] (setting [8]).

`Cc1cccc(-c2c3nc(c(-c4cccc(C)c4)c4ccc([nH]4)c(-c4cccc(C)c4)c4nc(c(-c5cccc(C)c5)c5ccc2[nH]5)C=C4)C=C3)c1` [TPP(3-Me)4, Tetra-(3-methylphenyl)-porphyrin]: the EC50 in test [2] (setting [9]), in test [3] (setting [10]) and in test [3] (setting [11]) was > 10 µM each time.

Turning to `C1=Cc2nc1c(-c1ccccc1)c1ccc([nH]1)c(-c1ccccc1)c1nc(c(-c3ccccc3)c3ccc([nH]3)c2-c2ccccc2)C=C1` [TPP, Meso-tetraphenylporphine], the EC50 is 13.7 µM in the test with HIV-1 (strain LAV-1) (setting [7]); > 10 µM in the test on HIV-1 (strain LAV-1) (read-out: EC50, inhibition of HIV replication in PBM cells, human PBM cells, RT activity in supernatant five days after infection); > 10 µM in test [2] (setting [12]); > 10 µM in test [2] (setting [9]); > 10 µM in test [3] (setting [10]); 10 µM in test [3] (setting [11]). In test [1], the EC50 is > 100 µM.

With “Copper phthalocyanine tetrasulfonic acid tetra-sodium salt [CuPHTHS4]”, the EC50 in the test on HIV-1 (strain LAV-1) (setting [4]) came to 22.4 µM.

For the molecule `O=C(O)c1ccc(-c2c3nc(c(-c4ccc(C(=O)O)cc4)c4ccc([nH]4)c(-c4ccc(C(=O)O)cc4)c4nc(c(-c5ccc(C(=O)O)cc5)c5ccc2[nH]5)C=C4)C=C3)cc1` [TPP(4-CO2 H)4, Tetra-(4-carboxyphenyl)-porphyrin], the EC50 is > 10 µM in test [2] (setting [12]); > 10 µM in test [2] (setting [9]); 2.5 µM in test [3] (setting [10]); 10 µM in test [3] (setting [11]); 1.1 µM in test [1].

Turning to `Clc1ccc(-c2c3nc(c(-c4ccc(Cl)cc4)c4ccc([nH]4)c(-c4ccc(Cl)cc4)c4nc(c(-c5ccc(Cl)cc5)c5ccc2[nH]5)C=C4)C=C3)cc1` [TPP(4-Cl)4, Tetra-(4-chlorophenyl)-porphyrin], in the test with HIV-1 (strain LAV-1) (setting [5]), the EC50 is ~100 µM.

Regarding `C=CC1=C(C)c2cc3[nH]c(cc4nc(cc5[nH]c(cc1n2)c(C)c5C=C)C(C)=C4CCC(=O)OC)c(CCC(=O)OC)c3C` [PPIXDME, Protoporphyrin IX dimethyl ester], the EC50 is > 10 µM in test [2] (setting [12]); > 10 µM in test [2] (setting [9]); > 10 µM in test [3] (setting [10]); 10 µM in test [3] (setting [11]); > 100 µM in test [1].

For “Copper-4,4',4'',4'''-tetra-aza-29H, 31H-phthalocyanine [CuPHTHN4]”, the EC50 in the test on HIV-1 (strain LAV-1) (setting [4]) was determined as 100 µM.

In the case of `[Cl][Fe]1[n]2c3ccc2C(c2ccccc2)=C2C=CC(=N2)C(c2ccccc2)=c2ccc([n]21)=C(c1ccccc1)C1=NC(=C3c2ccccc2)C=C1` [FeTPPCl, Fe(III)-tetraphenylporphyrin chloride], the EC50 with HIV-1 (strain LAV-1) (setting [4]) is ~100 µM.

On to `CC1=C(CCC(=O)O)c2cc3[nH]c(cc4nc(cc5[nH]c(cc1n2)c(C)c5C(C)O)C(C)=C4C(C)O)c(C)c3CCC(=O)O` (centres unmarked) [hematoporphyrin], for which, in the test on influenza A, the “Concentration inhibiting in vitro replication of influenza A” value is 0.5 µg/mL. For the same molecule, the “Concentration inhibiting in vitro replication of herpes simplex viruses” value in the test on herpes simplex viruses is 0.5 µg/mL.

In the case of `Cc1ccc(-c2c3nc(c(-c4ccc(C)cc4)c4ccc([nH]4)c(-c4ccc(C)cc4)c4nc(c(-c5ccc(C)cc5)c5ccc2[nH]5)C=C4)C=C3)cc1` [TPP(4-Me)4, Tetra-(4-methylphenyl)-porphyrin], the EC50 in test [2] (setting [12]) was 3.95 µM; in test [2] (setting [9]) it was > 10 µM; in test [3] (setting [10]), > 10 µM; in test [3] (setting [11]) it was 1 µM; in test [1], > 100 µM.

Take `Oc1ccc(-c2c3nc(c(-c4ccc(O)cc4)c4ccc([nH]4)c(-c4ccc(O)cc4)c4nc(c(-c5ccc(O)cc5)c5ccc2[nH]5)C=C4)C=C3)cc1` [TPP(4-OH)4, Tetra-(4-hydroxyphenyl)-porphyrin]: the EC50 is 0.6 µM in the test on HIV-1 (strain LAV-1) (setting [5]); 0.7 µM in the test with HIV-1 (strain LAV-1) (setting [4]); > 10 µM in test [2] (setting [12]); > 10 µM in test [2] (setting [9]); > 10 µM in test [3] (setting [10]); > 10 µM in test [3] (setting [11]).

As for `C[n+]1ccc(-c2c3nc(c(-c4ccccc4)c4ccc([nH]4)c(-c4ccccc4)c4nc(c(-c5cc[n+](C)cc5)c5ccc2[nH]5)C=C4)C=C3)cc1.[Ni+2]` [Ni-CP4, Ni(II)-5,10-diphenyl-15,20-di(N-methyl-4-pyridyl)-porphyrin], the EC50 with HIV-1 (strain LAV-1) (setting [4]) is 3.44 µM and 6.54 µM; in test [1] (setting [6]) it was 24.8 µM.

For the molecule `C[n+]1ccc(-c2c3nc(c(-c4cc[n+](C)cc4)c4ccc([nH]4)c(-c4cc[n+](C)cc4)c4nc(c(-c5cc[n+](C)cc5)c5ccc2[nH]5)C=C4)C=C3)cc1` [TMPyP, Tetra-(N-methyl-4-pyridyl)-porphyrin tosylate salt], the EC50 in test [2] (Human alphaherpesvirus 2, Vero, read-out: EC50 HSV type 2 Dark) was > 10 µM; in test [2] (Human alphaherpesvirus 2, Vero, read-out: EC50 HSV type 2 Light), > 1 µM; in test [3] (Human alphaherpesvirus 1, Vero, read-out: EC50 HSV type 1 Dark) it was 0.04 µM; in test [3] (Human alphaherpesvirus 1, Vero, read-out: EC50 HSV type 1 Light), 0.03 µM.

As for “Nickel phthalocyanine tetrasulfonic acid [NiPHTHS4]”, in the test on HIV-1 (strain LAV-1) (setting [4]), the EC50 stood at 1.06 µM.

As to `C=CC1=C(C)c2cc3[nH]c(cc4nc(cc5[nH]c(cc1n2)c(C)c5CCC(=O)O)C(CCC(=O)O)=C4C)c(C)c3C=C` [PPIX, Protoporphyrin, disodium salt], the EC50 in test [2] (setting [12]) was 10 µM; in test [2] (setting [9]), 0.05 µM; in test [3] (setting [11]) it was < 0.01 µM; in test [1], > 100 µM.

Regarding `C[n+]1ccc(-c2c3nc(c(-c4cc[n+](C)cc4)c4ccc([nH]4)c(-c4cc[n+](C)cc4)c4nc(c(-c5cc[n+](C)cc5)c5ccc2[nH]5)C=C4)C=C3)cc1.Cl.[Fe+3]` [FeTMPyP, Fe(III)-tetra-(N-methyl-4-pyridyl)-porphyrin chloride], in the test on HIV-1 (strain LAV-1) (setting [4]), the EC50 turned out to be 78.1 µM.

Take “Copper phthalocyanine 3,4'4'',4'''-tetrasulfonic acid [(CuPHTHS4)(3,4,4,4)]”: the EC50 in the test on HIV-1 (strain LAV-1) (setting [4]) is ≤ 1 µM.

For the molecule `C[n+]1ccc(-c2c3nc(c(-c4ccccc4)c4ccc([nH]4)c(-c4cc[n+](C)cc4)c4nc(c(-c5ccccc5)c5ccc2[nH]5)C=C4)C=C3)cc1` [TP-3, 5,15-Diphenyl-10,20-di(N-methyl-4-pyridyl)-porphyrin Cl-], the EC50 in test [1] (setting [8]) stood at 7.3 µM.
